According to publication PMC2880193 (Archives of biochemistry and biophysics, 2010):

Target: T1, Put1p (Put1pΔ18) (Saccharomyces cerevisiae, UniProt P09368)
T1 sequence (P09368 19-476): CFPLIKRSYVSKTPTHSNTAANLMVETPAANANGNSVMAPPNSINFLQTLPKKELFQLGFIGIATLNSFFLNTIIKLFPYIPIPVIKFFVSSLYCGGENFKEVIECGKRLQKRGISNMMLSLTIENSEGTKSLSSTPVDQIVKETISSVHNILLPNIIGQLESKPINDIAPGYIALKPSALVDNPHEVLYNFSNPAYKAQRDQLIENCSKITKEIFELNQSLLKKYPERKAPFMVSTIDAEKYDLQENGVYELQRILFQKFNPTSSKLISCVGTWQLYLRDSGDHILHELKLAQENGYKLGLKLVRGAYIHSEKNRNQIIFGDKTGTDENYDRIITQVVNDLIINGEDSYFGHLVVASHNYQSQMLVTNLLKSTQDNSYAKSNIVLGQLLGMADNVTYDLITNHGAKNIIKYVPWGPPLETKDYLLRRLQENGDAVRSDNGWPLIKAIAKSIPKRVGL
Test: proline:DCPIP assay, Lineweaver-Burk plot
Type: biochemical

SMILES: O=C(O)[C@@H]1CCCO1 [L-THFA]
- Ki: 5.3 mM
